Assay results taken from PMC12583827, “Harnessing microbial-derived metabolites in the urinary tract to prevent infection induced catheter encrustation” (Nature Communications, 2025).
Structures can show the parent of a compound that is named as a salt. Where two headings read alike, the source gives them in different places.

How the values were obtained:
P. mirabilis urease [1] = target: T1, P. mirabilis urease (Proteus mirabilis, UniProt P17086); assay type: cell-based; conditions: for effect on P. mirabilis urease activity (whole cell): potassium phosphate buffer, dose response
T1 construct: it utilizes whole bacterial cells, rather than isolated enzyme preparations; endogenous in cells; host or cells: Proteus mirabilis HI4320, live whole cells
Method: Urease activity was measured as described previously in triplicate with at least three biological replicates[21]. Briefly, bacteria were cultured for ~18 h in LB broth, concentrated to an OD600 of 4, washed once in saline, and diluted (1:10 for P. mirabilis and 1:50 for P. stuartii and M. morganii) into candidate dampening metabolites in potassium phosphate buffer or human urine pH7 and supplemented with 500 mM urea and 0.01% phenol red. Bacterial suspensions were distributed into a 96-well plate, incubated at 37 °C with double-orbital shaking in a Synergy H1 plate reader (BioTek), and absorbance (OD562) was measured every 60 seconds for 180 minutes. Isogenic urease mutants (Supplementary Data 1) served as negative controls for P. mirabilis and P. stuartii and a vehicle control served as a negative control for M. morganii.

[2] = target: T2, urease of P. mirabilis HI4320 cell free extracts (Proteus mirabilis, UniProt P17086); assay type: biochemical
T2 construct: 20ul of cell-free extract were distributed into a 96-well plate in place of the whole cell bacterial suspensions; endogenous in cells; host or cells: Proteus mirabilis HI4320, urea-induced; freeze-thaw and sonication lysate, clarified supernatant
Method: To measure urease activity of the cell free extracts of P. mirabilis, P. mirabilis was cultured for ~18 h in LB broth and then sub cultured until it reached mid-log growth phase (OD600 0.2-0.5). Cultures were spun down to pellet at 10,000 rcf for 10 minutes and resuspended in saline to a final OD600 of 1.0. Cultures were then diluted 1:10 in potassium phosphate buffer pH7 supplemented with 500 mM urea and incubated at 37 °C with shaking for 1 h to induce its urease enzyme production. The isogenic urease mutant Pm ureF::kan (Supplementary Data 1) served as negative control. Cultures then were spun down to pellet at 10,000 rcf for 10 minutes and resuspended in 2 mL saline. Cultures were subjected to four cycles of freezing in liquid nitrogen and thawing in a 37 °C water bath. Cultures were then probe sonicated (on ice) at 25% amplitude for 10 sec. Sonicated cultures were centrifuged at 18,900 Xg for 5 min and supernatants were transferred to a clean tube and stored on ice. To measure urease activity of cell free extracts, the previously described assay was modified such that 20ul of cell-free extract were distributed into a 96-well plate in place of the whole cell bacterial suspensions. Acetohydroxamic acid (AHA), was used as a positive control. Percent of maximum urease activity was calculated using Area Under the Curve (AUC) relative to untreated cell free extracts of P. mirabilis.

Jack Bean Urease (JBU) = target: T3, Jack Bean Urease (JBU) (Canavalia ensiformis, UniProt P07374); assay type: biochemical; conditions: for JBU activity: 0.1 U JBU, 500 mM urea
T3 construct: purchased Sigma-Aldrich
Method: To measure Jack Bean urease activity, the previously described assay was modified such that 0.1 U (1U liberates 1 µmol of ammonia from urea per minute) of JBU (Sigma-Aldrich urease from Canavalia ensiformis) were distributed into a 96-well plate in place of the bacterial suspensions. Acetohydroxamic acid (AHA), was used as a positive control and a vehicle control was used as a negative control. Percent of maximum urease activity was calculated using Area Under the Curve (AUC) relative to untreated bacteria of interest or untreated JBU. Urease activity measurement in MRSA was adapted from a recently published semi quantitative assay (See Supplementary materials for details)[48].
414 Supplementary Figure 13. Microbial metabolites dampen activity of purified Jack Bean
415 Urease (JBU). 0.1 U of JBU (1U liberates 1 µmol of ammonia from urea per minute) was
416 incubated at 37 °C with shaking in urease-dampening metabolites, 500mM urea, and phenol red.
417 A urea analogue, AHA, served as the positive control for inhibition of JBU. Absorbance
418 (OD562) was measured every 60 seconds for 90 minutes, and activity is expressed as percent of
419 maximum activity (% Max Activity) relative to untreated JBU. Graphs show mean±SD for 3
420 independent experiments with 3 technical replicates each. Data were analyzed by two tailed one
421 sample t-test to a hypothetical value of 100% activity. ***P<0.001, **P<0.002, *P<0.033.
(1 picture or pasted object on this page, not shown here)

[3] = target: T4, urease of P. mirabilis cell free extracts (Proteus mirabilis, UniProt P17086); assay type: biochemical; conditions: for type of urease inhibition: Michaelis-Menten parameters, Lineweaver-Burke plot
T4 construct: 20ul of cell-free extract were distributed into a 96-well plate in place of the whole cell bacterial suspensions; endogenous in cells; host or cells: Proteus mirabilis HI4320, urea-induced; freeze-thaw and sonication lysate, clarified supernatant
Method: For the kinetic analysis of the urease reaction in the presence of urease dampening metabolites, urease activity assays were repeated with the P. mirabilis cell free extracts. Six different inhibitor concentrations that gave linear rates of reaction over a period of 120 min were tested for their effects on urease activity in the presence of urea concentrations ranging from 0 to 500 mM. Simple linear regression was performed on the absorbance (OD562) over 120 minutes for each condition and plotted as Initial velocity (slope) vs urea concentration. These initial hyperbolic plots were converted to double-reciprocal Lineweaver-Burke plots, and the pattern of inhibition inferred from the point of intersection of the lines. Finally, the Ki for a particular compound was determined by plotting the Km/Vmax ratio (the slope of the Lineweaver-Burke plots) of each line as a function of the inhibitor concentration as described by ref. [49]. The X-intercept corresponded to –Ki.

P. mirabilis urease [4] = target: T1, P. mirabilis urease; assay type: cell-based; conditions: for Combination index (CI): in combination with AHA; for Compound 2 %I alone: kphos
Method: To assess the synergistic effects of dampening metabolites when used in combination with each other, P. mirabilis urease activity was measured as described above. Between 4-6 different concentrations for each dampening metabolite were tested both alone and in combination (See Fig. 6a for example). […] To account for variability between experiments, all conditions tested were performed on a single 96-well plate with three technical replicates for each condition. To compare between biologic replicates, percent inhibition relative to untreated P. mirabilis was calculated for each condition using the average area under the curve over 120-180 minutes (so that the positive control activity curve saturated without any increase in the negative control curve).
Statistical analysis was conducted using a one sample T test of the combination index compared to a hypothetical value of 1 (additive effect). […] Therefore, combination indexes were calculated using a desired effect size less than 40% were indicated with an * in Fig. 6b and in Supplementary Data 5.

T1 sequence (P17086 whole entry): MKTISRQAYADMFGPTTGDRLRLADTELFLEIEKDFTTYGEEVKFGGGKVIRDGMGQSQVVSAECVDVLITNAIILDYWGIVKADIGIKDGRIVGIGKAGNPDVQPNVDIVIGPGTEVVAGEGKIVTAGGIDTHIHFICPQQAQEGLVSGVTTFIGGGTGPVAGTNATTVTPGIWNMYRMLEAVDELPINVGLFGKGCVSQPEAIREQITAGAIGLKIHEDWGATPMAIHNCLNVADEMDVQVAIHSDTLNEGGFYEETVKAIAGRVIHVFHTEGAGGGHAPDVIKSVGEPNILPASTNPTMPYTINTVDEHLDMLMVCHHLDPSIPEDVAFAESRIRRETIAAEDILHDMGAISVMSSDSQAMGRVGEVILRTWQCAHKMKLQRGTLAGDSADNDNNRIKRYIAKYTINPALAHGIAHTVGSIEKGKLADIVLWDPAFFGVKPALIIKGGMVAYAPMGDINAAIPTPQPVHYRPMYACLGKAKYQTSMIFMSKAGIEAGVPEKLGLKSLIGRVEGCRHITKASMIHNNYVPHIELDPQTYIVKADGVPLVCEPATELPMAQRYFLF
T1 sequence (P17088 whole entry, further chain): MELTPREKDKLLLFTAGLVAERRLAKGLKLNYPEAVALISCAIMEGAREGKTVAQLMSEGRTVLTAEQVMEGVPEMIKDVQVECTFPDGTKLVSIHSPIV
T1 sequence (P17087 whole entry, further chain): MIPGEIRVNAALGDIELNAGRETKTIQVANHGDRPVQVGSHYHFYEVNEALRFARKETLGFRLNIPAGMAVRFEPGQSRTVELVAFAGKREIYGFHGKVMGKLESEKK
T4 sequence (P17086 whole entry): as the sequence (P17086 whole entry) above
T4 sequence (P17088 whole entry, further chain): as the sequence (P17088 whole entry, further chain) above
T4 sequence (P17087 whole entry, further chain): as the sequence (P17087 whole entry, further chain) above
T3 sequence (P07374 whole entry, looked up): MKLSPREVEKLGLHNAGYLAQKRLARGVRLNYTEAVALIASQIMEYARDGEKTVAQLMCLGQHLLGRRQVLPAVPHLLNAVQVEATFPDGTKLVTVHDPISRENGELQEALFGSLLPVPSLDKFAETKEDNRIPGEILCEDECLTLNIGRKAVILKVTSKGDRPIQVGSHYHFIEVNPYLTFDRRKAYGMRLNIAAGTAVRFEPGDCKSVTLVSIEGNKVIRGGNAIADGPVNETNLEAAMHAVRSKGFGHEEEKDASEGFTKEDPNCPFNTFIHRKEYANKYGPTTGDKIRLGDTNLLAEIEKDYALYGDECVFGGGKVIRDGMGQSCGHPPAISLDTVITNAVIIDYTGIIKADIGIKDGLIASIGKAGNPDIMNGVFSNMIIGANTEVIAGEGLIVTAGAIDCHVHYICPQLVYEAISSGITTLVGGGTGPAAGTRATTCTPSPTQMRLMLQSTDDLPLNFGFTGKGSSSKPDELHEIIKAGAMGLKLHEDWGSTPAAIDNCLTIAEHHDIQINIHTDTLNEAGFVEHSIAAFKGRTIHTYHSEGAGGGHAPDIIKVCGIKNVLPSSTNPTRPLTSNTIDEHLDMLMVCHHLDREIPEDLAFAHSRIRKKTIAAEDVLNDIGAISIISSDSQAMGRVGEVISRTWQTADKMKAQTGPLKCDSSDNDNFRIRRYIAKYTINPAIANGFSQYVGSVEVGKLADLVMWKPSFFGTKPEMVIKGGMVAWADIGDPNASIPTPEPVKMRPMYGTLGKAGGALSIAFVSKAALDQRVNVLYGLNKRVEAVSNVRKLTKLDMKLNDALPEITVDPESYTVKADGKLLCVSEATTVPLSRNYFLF
T2 sequence (P17088 whole entry): as the sequence (P17088 whole entry, further chain) above
T2 sequence (P17086 whole entry): as the sequence (P17086 whole entry) above
T2 sequence (P17087 whole entry, further chain): as the sequence (P17087 whole entry, further chain) above

SMILES	Dampens urease activity (P. mirabilis urease [1]; biosynthetic pathway/functional group screen, highest concentration tested 20mM)	effect on P. mirabilis urease activity (whole cell) (P. mirabilis urease [1])	urease activity of cell free P. mirabilis extracts [2]	JBU activity (Jack Bean Urease (JBU))	change of estimated Km on addition of metabolite [3]	change of estimated Vmax on addition of metabolite [3]	type of urease inhibition [3]	concentrations required to achieve a significant combination index (P. mirabilis urease [4]) [mM]	Combination index (CI) (P. mirabilis urease [4])	sub-inhibitory concentrations that still decrease P. mirabilis urease activity (P. mirabilis urease [1]; concentrations not inhibiting growth/viability) [mM]	Urease dampening activity (P. mirabilis urease [1]; highest concentration tested 0.625mM)	Compound 2 %I alone (P. mirabilis urease [4]; Compound 2 [] alone 0.0782, assay date 2024 08 07) [%]	Compound 2 %I alone (P. mirabilis urease [4]; Compound 2 [] alone 0.156, assay date 2024 08 07) [%]	Compound 2 %I alone (P. mirabilis urease [4]; Compound 2 [] alone 0.156, assay date 2024 08 09) [%]	Urease dampening activity (P. mirabilis urease [1]; screen of candidate metabolites, highest concentration tested 20mM, * Trending but not statistically significant, listed as Histamine HCl)	concentrations at which JBU activity was significantly inhibited (Jack Bean Urease (JBU)) [mM]
Cl.O=C(O)Cc1cnc[nH]1 [4-imidazole acetate, 2-(1H-Imidazol-5-yl)acetic acid hydrochloride]	Yes	additional hits	at least partially inhibiting	inhibited	increase	decrease	mixed inhibitors	< 50	< 1	–	–	–	–	–	–	–
O.O=C(O)[C@H](O)Cc1cnc[nH]1 [D-imidazole lactate, D-imidazolelactic acid hydrate]	–	more potent activity profile compared to the L-imidazole lactate	at least partially inhibiting	inhibited	remain roughly unchanged	decrease	non-competitive inhibition	–	–	≤ 0.0391	Yes	34.9	60.4	49.2	–	–
NCCc1c[nH]cn1 [Histamine, histamine dihydrochloride]	–	reproducibly decreased	at least partially inhibiting	–	increase	decrease	mixed inhibitors	< 50	< 1	–	–	–	–	–	Yes	> 20
